Assay results: patent US6395896B2, “Pyridazine derivatives, manufacturing method and related composition” (Shiseido Co., Ltd., priority 1999, dated 2002)

Test: Perfume stabilization effect (sequestering agent combination)
Set-up: key to Sunlight exposure (80 MJ) Smell evaluation: A: No change; B: No almost change; C: Yes change
Details: for smell change: with a sequestering agent, compared with compositions without; for Sunlight exposure (80 MJ) Smell evaluation: amounts wt %
Description: Next, for combinations with sequestering agent, photostabilization effect for each perfume was studied by the following evaluation formulation.
Each test sample was prepared. Smell change of samples exposed to sunlight (80 MJ) was observed (judgement by perfumier).

Q: For `Oc1nncc(N2CCOCC2)c1N1CCOCC1` [4,5-Dimorpholino-3-hydroxypyridazine], which smell change (base perfume, Table 29) is on record?
A: very small

Q: What about the “Sunlight exposure (80 MJ) Smell evaluation” value (“Sunlight exposure” for short) (natural perfume Bergamot oil 0.03, photostabilizer 0.05 + Trisodium ethylenediamine tetraacetate 0.03) of the same compound?
A: A

Q: And the “Sunlight exposure” value (natural perfume Bergamot oil 0.03, photostabilizer 0.05, no sequestering agent)?
A: B

Q: And the “Sunlight exposure” value (natural perfume Jasmine oil 0.03, photostabilizer 0.02 + Sodium metaphosphate 0.03)?
A: A

Q: And the “Sunlight exposure” value (natural perfume Jasmine oil 0.03, photostabilizer 0.02, no sequestering agent)?
A: B

Q: And the “Sunlight exposure” value (natural perfume Lavender oil 0.03, photostabilizer 0.02 + Trisodium hydroxyethyl ethylenediamine triacetate 0.03)?
A: A

Q: And the “Sunlight exposure” value (natural perfume Lavender oil 0.03, photostabilizer 0.02, no sequestering agent)?
A: B

Q: What about the “Sunlight exposure” value (natural perfume Musk oil 0.03, photostabilizer 0.1 + Sodium metaphosphate 0.03) of the same compound?
A: A

Q: What about the “Sunlight exposure” value (natural perfume Musk oil 0.03, photostabilizer 0.1, no sequestering agent) of the same compound?
A: B

Q: And the “Sunlight exposure” value (natural perfume Orange oil 0.03, photostabilizer 0.05 + Sodium metaphosphate 0.03)?
A: A

Q: And the “Sunlight exposure” value (natural perfume Orange oil 0.03, photostabilizer 0.05, no sequestering agent)?
A: B

Q: And the “Sunlight exposure” value (natural perfume Peppermint oil 0.03, photostabilizer 0.01 + Trisodium ethylenediamine triacetate 0.03)?
A: A

Q: What about the “Sunlight exposure” value (natural perfume Peppermint oil 0.03, photostabilizer 0.01, no sequestering agent) of the same compound?
A: B

Q: And the “Sunlight exposure” value (natural perfume Rose oil 0.03, photostabilizer 0.02 + Trisodium ethylenediamine tetraacetate 0.03)?
A: A

Q: And the “Sunlight exposure” value (natural perfume Rose oil 0.03, photostabilizer 0.02, no sequestering agent)?
A: B

Q: What about the “Sunlight exposure” value (natural perfume Ylang ylang oil 0.03, photostabilizer 0.02 + Trisodium hydroxyethyl ethylenediamine triacetate 0.03) of the same compound?
A: A

Q: What about the “Sunlight exposure” value (natural perfume Ylang ylang oil 0.03, photostabilizer 0.02, no sequestering agent) of the same compound?
A: B

Q: What about the smell change (natural perfume, Table 27) of the same compound?
A: very small

Q: What about the “Sunlight exposure” value (perfume Aldehyde 0.03, photostabilizer 0.05 + Trisodium hydroxyethyl ethylenediamine triacetate 0.03) of the same compound?
A: A

Q: What about the “Sunlight exposure” value (perfume Aldehyde 0.03, photostabilizer 0.05, no sequestering agent) of the same compound?
A: B

Q: And the “Sunlight exposure” value (perfume Animal 0.03, photostabilizer 0.1 + Trisodium ethylenediamine tetraacetate 0.03)?
A: A

Q: What about the “Sunlight exposure” value (perfume Animal 0.03, photostabilizer 0.1, no sequestering agent) of the same compound?
A: B

Q: What about the “Sunlight exposure” value (perfume Fruity 0.03, photostabilizer 0.03 + Sodium metaphosphate 0.03) of the same compound?
A: A

Q: And the “Sunlight exposure” value (perfume Fruity 0.03, photostabilizer 0.03, no sequestering agent)?
A: B

Q: What about the “Sunlight exposure” value (perfume Green 0.03, photostabilizer 0.01 + Trisodium hydroxyethyl ethylenediamine triacetate 0.03) of the same compound?
A: A

Q: And the “Sunlight exposure” value (perfume Green 0.03, photostabilizer 0.01, no sequestering agent)?
A: B

Q: And the “Sunlight exposure” value (perfume Jasmine 0.03, photostabilizer 0.02 + Trisodium ethylenediamine tetraacetate 0.03)?
A: A

Q: What about the “Sunlight exposure” value (perfume Jasmine 0.03, photostabilizer 0.02, no sequestering agent) of the same compound?
A: B

Q: What about the “Sunlight exposure” value (perfume Muguet 0.03, photostabilizer 0.02 + Sodium metaphosphate 0.03) of the same compound?
A: A

Q: What about the “Sunlight exposure” value (perfume Muguet 0.03, photostabilizer 0.02, no sequestering agent) of the same compound?
A: B

Q: And the “Sunlight exposure” value (perfume Oriental 0.03, photostabilizer 0.01 + Trisodium ethylenediamine tetraacetate 0.03)?
A: A

Q: What about the “Sunlight exposure” value (perfume Oriental 0.03, photostabilizer 0.01, no sequestering agent) of the same compound?
A: B

Q: What about the “Sunlight exposure” value (perfume Rose 0.03, photostabilizer 0.02 + Trisodium hydroxyethyl ethylenediamine triacetate 0.03) of the same compound?
A: A

Q: And the “Sunlight exposure” value (perfume Rose 0.03, photostabilizer 0.02, no sequestering agent)?
A: B

Q: And the “Sunlight exposure” value (synthetic perfume Benzyl benzoate 0.03, photostabilizer 0.02 + Trisodium hydroxyethyl ethylenediamine triacetate 0.03)?
A: A

Q: And the “Sunlight exposure” value (synthetic perfume Benzyl benzoate 0.03, photostabilizer 0.02, no sequestering agent)?
A: B

Q: And the “Sunlight exposure” value (synthetic perfume Citral 0.03, photostabilizer 0.01 + Trisodium hydroxyethyl ethylenediamine triacetate 0.03)?
A: A

Q: And the “Sunlight exposure” value (synthetic perfume Citral 0.03, photostabilizer 0.01, no sequestering agent)?
A: B

Q: What about the “Sunlight exposure” value (synthetic perfume Lilial 0.03, photostabilizer 0.1 + Sodium metaphosphate 0.03) of the same compound?
A: A

Q: And the “Sunlight exposure” value (synthetic perfume Lilial 0.03, photostabilizer 0.1, no sequestering agent)?
A: B

Q: What about the “Sunlight exposure” value (synthetic perfume Limonene 0.03, photostabilizer 0.02 + Trisodium hydroxyethyl ethylenediamine triacetate 0.03) of the same compound?
A: A

Q: And the “Sunlight exposure” value (synthetic perfume Limonene 0.03, photostabilizer 0.02, no sequestering agent)?
A: B

Q: And the “Sunlight exposure” value (synthetic perfume Oranthiol 0.03, photostabilizer 0.05 + Sodium metaphosphate 0.03)?
A: A

Q: And the “Sunlight exposure” value (synthetic perfume Oranthiol 0.03, photostabilizer 0.05, no sequestering agent)?
A: B

Q: And the “Sunlight exposure” value (synthetic perfume Rose oxide 0.03, photostabilizer 0.05 + Trisodium ethylenediamine tetraacetate 0.03)?
A: A

Q: And the “Sunlight exposure” value (synthetic perfume Rose oxide 0.03, photostabilizer 0.05, no sequestering agent)?
A: B

Q: And the “Sunlight exposure” value (synthetic perfume cis-3-Hexenol 0.03, photostabilizer 0.02 + Trisodium ethylenediamine tetraacetate 0.03)?
A: A

Q: And the “Sunlight exposure” value (synthetic perfume cis-3-Hexenol 0.03, photostabilizer 0.02, no sequestering agent)?
A: B

Q: What about the “Sunlight exposure” value (synthetic perfume β-ionone 0.03, photostabilizer 0.01 + Trisodium ethylenediamine tetraacetate 0.03) of the same compound?
A: A

Q: What about the “Sunlight exposure” value (synthetic perfume β-ionone 0.03, photostabilizer 0.01, no sequestering agent) of the same compound?
A: B

Q: And the smell change (synthetic perfume, Table 28)?
A: very small
